# Experiments:
# Arabidopsis roots = conditions: in vivo; cited from earlier work
# Arabidopsis = experiment: Combinatorial root growth assay with plant growth media supplied with Trp; assay type: in vivo
# Description: To further test this hypothesis, we supplied plant growth media with Trp (FIG. 4, FIGS. 13 and 14) and repeated the combinatorial assay. […] In contrast, root growth might improve if the WCS417 strain are metabolically active only around the root tips. […] However, at 10 μM, Trp inhibited the root growth of plants colonized with the wild-type WCS417 strain. […] Additionally, we inoculated the engineered strains to the Trp-overproducing Arabidopsis mutant line. Root growth and development of this Arabidopsis mutant line are not also impaired (FIG. 4).
# First, Arabidopsis seeds are sterilized with 70% ethanol for 2 min and 10% bleach for 5 min. These seeds are rinsed five times with sterile water. Sterilized seeds are kept in a 4° C. fridge for 3 days and then are horizontally individually dispensed on the surface of 1/2 MS agar plates. The plates are vertically incubated in a plant growth chamber under a light cycle of 8 h dark and 16 h light for 6 days. […] On the following day, cultures are washed three times with sterile 10 mM MgCl2 solution and measured for values at OD600nm using an Eppendorf Spectro reader. Uniformly germinated 6-day-old seedlings are inoculated with 1 μL of OD600nm=0.2 culture of engineered WCS417 strains. […] Collected photos are analyzed using EZ-Root-VIS software (Shahzad et al., 2018) for primary root length, lateral root number, and total length.
Structure (SMILES),level of externally added IAA that significantly changes root phenotypes (Arabidopsis roots) [µM],root growth (Arabidopsis; 0.1 μM of Trp in plant growth media),root growth of plants colonized with the wild-type WCS417 strain (Arabidopsis; 10 μM Trp in plant growth media)
"O=C(O)Cc1c[nH]c2ccccc12 [IAA, Indole-3-acetic acid]",0.01 to 0.1,,
"N[C@@H](Cc1c[nH]c2ccccc12)C(=O)O [Trp, tryptophan]",,did not see much impact,inhibited
